# “And” between values parts separate entries of the source, which are not always exact repeats. Equal entries are not always repeated.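 Where inhibition never reached the appropriate level, the endpoint shown equals the highest concentration tested. Otherwise, values were interpolated linearly from a five-concentration, 48-hour dose response in 96-well plates. Here, GI50 denotes the concentration required for 50% inhibition of growth. TGI is the concentration that stops growth completely.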
# Tested on: UACC-62 melanoma
# Assay: inhibition of tumour cell growth, NCI panel, 48 h
SMILES,TGI,GI50 [µM]
CCOC(=O)c1c2ccccc2n2c(N)c(C(N)=O)nnc12,81.1 µM,
O=C(NNC(=O)c1ccccc1SSc1ccccc1C(=O)NNC(=O)c1ccccc1S)c1ccccc1S,54.8 µM,
CCOC(=O)C(NC(C)=O)(Nc1ccc(F)cc1)C(F)(F)F (stereo not drawn),> 100 µM,
O=C1/C(=C/c2ccc(O)cc2)CC/C1=C\c1ccc(O)cc1,> 100 µM,
CC(C)C1/C(=N/O)CC(c2ccccc2)N(N=O)C1c1ccccc1 (stereo not drawn),45.3 µM,
COc1cc(/C=C2\S/C(=N/Nc3nc(-c4ccc(Br)cc4)cs3)NC2=O)cc(OC)c1OC,25.4 µM,
COC(=O)[C@H]1CO[C@@H](C(C)(C)C)N1C(=O)N1C=CC(=O)C[C@@H]1C,> 100 µM,
CCC1(O)CC2CC(=O)OC2C1O (stereo not drawn),> 100 µM,
Oc1cccc2c(Cl)ccnc12,8.45 µM,
N#CC1=C(N)N(c2ccccc2)C(c2ccco2)C1(C#N)C#N (stereo not drawn),59.3 µM,
NC(=O)C(c1ccccc1)N1OC2C(=O)N(c3ccccc3)C(=O)C2C1c1c2ccccc2c(Cl)c2ccccc12 (stereo not drawn),> 100 µM,
CC(C)c1ccc(/C=C2/C=C(c3ccc4ccccc4c3)OC2=O)cc1,> 100 µM,
COc1ccc(C(OCC2OC(n3cc(C)c(=O)[nH]c3=O)CC2n2cc(Cn3cc(I)c(=O)[nH]c3=O)nn2)(c2ccccc2)c2ccccc2)cc1 (stereo not drawn),> 100 µM,
O=S1(=O)NC(=NCc2c[nH]c3ccccc23)N(c2ccccc2)c2ccncc21,> 100 µM,
COc1ccc(CNc2nc(NCc3ccc(OC)c(OC)c3)nc(NC3CCCCC3)n2)cc1,> 100 µM,
Cc1c2cnccc2c(C)c2c1c1ccccc1n2CCCN,1.7 µM and 1.75 µM,0.517
O=C(CCC(=O)c1ccc(Cl)cc1)NO,> 100 µM,
COc1c(C)c(C/C=C(\C)CCCCO[Si](c2ccccc2)(c2ccccc2)C(C)(C)C)c(OC)c(OC)c1OC,> 46.4 µM,
COc1ccc(C2c3cc4c(cc3OC(NNS(=O)(=O)c3ccc(C)cc3)C2C)OCO4)cc1 (stereo not drawn),> 100 µM,
C[C@@]12C[C@@H](c3ccccc3O1)N1CCCCSC1=N2,> 100 µM,
c1ccc(N=C2SC3=Nc4cccc5cccc(c45)N3C2=Nc2ccccc2)cc1,> 100 µM,
Cc1nc(C(N)=S)sc1/C(CC(=O)C(=O)Nc1cccc2ccc(O)cc12)=N\NC(=O)c1ccncc1,> 100 µM,
Oc1cc2c3c(c1)c1cc4c(cc1c[n+]3CC2)OCO4,28.8 µM,
Nc1cccc2cc(Cl)cnc12,> 100 µM,
C=C1c2nc3ccccc3n2C=C(c2ccccc2)N1c1ccc([N+](=O)[O-])cc1,32.3 µM,
Cc1ccccc1-n1c(=O)c2ncn(CCCl)c2n(-c2ccccc2C)c1=S,> 100 µM,

# Tested on: NCI-H522 lung
# Assay: inhibition of tumour cell growth, NCI panel, 48 h
SMILES,TGI,GI50 [µM]
O=c1[nH][nH]c(=O)n1Cc1ccccc1Cn1c(=O)[nH][nH]c1=O,> 100 µM,
CCOC(=O)c1c2ccccc2n2c(N)c(C(N)=O)nnc12,> 100 µM,
O=C(NNC(=O)c1ccccc1SSc1ccccc1C(=O)NNC(=O)c1ccccc1S)c1ccccc1S,1.67 µM,
CCOC(=O)C(NC(C)=O)(Nc1ccc(F)cc1)C(F)(F)F (stereo not drawn),> 100 µM,
O=C1/C(=C/c2ccc(O)cc2)CC/C1=C\c1ccc(O)cc1,> 100 µM,
CC(C)C1/C(=N/O)CC(c2ccccc2)N(N=O)C1c1ccccc1 (stereo not drawn),> 100 µM,
COc1cc(/C=C2\S/C(=N/Nc3nc(-c4ccc(Br)cc4)cs3)NC2=O)cc(OC)c1OC,30.2 µM,
COC(=O)[C@H]1CO[C@@H](C(C)(C)C)N1C(=O)N1C=CC(=O)C[C@@H]1C,> 100 µM,
CCC1(O)CC2CC(=O)OC2C1O (stereo not drawn),> 100 µM,
Cc1ccc(SCC(CSCCO)OCn2cnc3c2NC(N)=NC32OCCO2)cc1 (stereo not drawn),> 100 µM,
Oc1cccc2c(Cl)ccnc12,2.44 µM,
N#CC1=C(N)N(c2ccccc2)C(c2ccco2)C1(C#N)C#N (stereo not drawn),35.2 µM,
NC(=O)C(c1ccccc1)N1OC2C(=O)N(c3ccccc3)C(=O)C2C1c1c2ccccc2c(Cl)c2ccccc12 (stereo not drawn),> 100 µM,
CC(C)c1ccc(/C=C2/C=C(c3ccc4ccccc4c3)OC2=O)cc1,23.5 µM,
COc1ccc(C(OCC2OC(n3cc(C)c(=O)[nH]c3=O)CC2n2cc(Cn3cc(I)c(=O)[nH]c3=O)nn2)(c2ccccc2)c2ccccc2)cc1 (stereo not drawn),> 100 µM,
O=S1(=O)NC(=NCc2c[nH]c3ccccc23)N(c2ccccc2)c2ccncc21,92.7 µM,
COc1ccc(CNc2nc(NCc3ccc(OC)c(OC)c3)nc(NC3CCCCC3)n2)cc1,5.74 µM,
Cc1c2cnccc2c(C)c2c1c1ccccc1n2CCCN,1.28 µM and 0.281 µM,0.108
O=C(CCC(=O)c1ccc(Cl)cc1)NO,> 100 µM,
COc1c(C)c(C/C=C(\C)CCCCO[Si](c2ccccc2)(c2ccccc2)C(C)(C)C)c(OC)c(OC)c1OC,> 100 µM,
COc1ccc(C2c3cc4c(cc3OC(NNS(=O)(=O)c3ccc(C)cc3)C2C)OCO4)cc1 (stereo not drawn),> 100 µM,
C[C@@]12C[C@@H](c3ccccc3O1)N1CCCCSC1=N2,> 100 µM,
c1ccc(N=C2SC3=Nc4cccc5cccc(c45)N3C2=Nc2ccccc2)cc1,> 100 µM,
Cc1nc(C(N)=S)sc1/C(CC(=O)C(=O)Nc1cccc2ccc(O)cc12)=N\NC(=O)c1ccncc1,> 100 µM,
Cc1cc(O)c2c(=O)c3ccccc3[nH]c2c1,16 µM,
Oc1cc2c3c(c1)c1cc4c(cc1c[n+]3CC2)OCO4,4.38 µM,
Nc1cccc2cc(Cl)cnc12,> 100 µM,
C=C1c2nc3ccccc3n2C=C(c2ccccc2)N1c1ccc([N+](=O)[O-])cc1,24.4 µM,
Cc1ccccc1-n1c(=O)c2ncn(CCCl)c2n(-c2ccccc2C)c1=S,> 100 µM,

# Tested on: CAKI-1 renal
# Assay: inhibition of tumour cell growth, NCI panel, 48 h
row,SMILES,TGI [µM]
1,O=c1[nH][nH]c(=O)n1Cc1ccccc1Cn1c(=O)[nH][nH]c1=O,> 100
2,CCOC(=O)c1c2ccccc2n2c(N)c(C(N)=O)nnc12,> 100
3,O=C(NNC(=O)c1ccccc1SSc1ccccc1C(=O)NNC(=O)c1ccccc1S)c1ccccc1S,> 100
4,CCOC(=O)C(NC(C)=O)(Nc1ccc(F)cc1)C(F)(F)F (stereo not drawn),> 100
5,O=C1/C(=C/c2ccc(O)cc2)CC/C1=C\c1ccc(O)cc1,> 100
6,CC(C)C1/C(=N/O)CC(c2ccccc2)N(N=O)C1c1ccccc1 (stereo not drawn),89.7
7,COc1cc(/C=C2\S/C(=N/Nc3nc(-c4ccc(Br)cc4)cs3)NC2=O)cc(OC)c1OC,46.6
8,COC(=O)[C@H]1CO[C@@H](C(C)(C)C)N1C(=O)N1C=CC(=O)C[C@@H]1C,> 100
9,CCC1(O)CC2CC(=O)OC2C1O (stereo not drawn),> 100
10,Cc1ccc(SCC(CSCCO)OCn2cnc3c2NC(N)=NC32OCCO2)cc1 (stereo not drawn),> 100
11,Oc1cccc2c(Cl)ccnc12,> 58.5
12,N#CC1=C(N)N(c2ccccc2)C(c2ccco2)C1(C#N)C#N (stereo not drawn),> 100
13,NC(=O)C(c1ccccc1)N1OC2C(=O)N(c3ccccc3)C(=O)C2C1c1c2ccccc2c(Cl)c2ccccc12 (stereo not drawn),> 100
14,CC(C)c1ccc(/C=C2/C=C(c3ccc4ccccc4c3)OC2=O)cc1,> 100
15,COc1ccc(C(OCC2OC(n3cc(C)c(=O)[nH]c3=O)CC2n2cc(Cn3cc(I)c(=O)[nH]c3=O)nn2)(c2ccccc2)c2ccccc2)cc1 (stereo not drawn),> 100
16,O=S1(=O)NC(=NCc2c[nH]c3ccccc23)N(c2ccccc2)c2ccncc21,> 100

# Reference: PubChem BioAssay (NCI)
